Assay results taken from US20210292765A1, “COMPOSITIONS COMPRISING INTERMEDIATE NON-CODING RNA REGULATORS MODULATING THE EXPRESSION OF ETV6 OR FOXO1 AND USES THEREOF” (University of Exeter, priority 2018, published 2021).
Marks after values point to notes of the source that are not given here.

Tests used:
Assay type in all cases: cell-based
[1] = test system: late passage primary human fibroblasts; assay: Cell proliferation index by Ki67 immunofluorescence; details: for increase in proliferative index: gene knockdown with morpholino oligonucleotides (10 μM)
Procedure: The proliferative capacity of treated cells was assessed by Ki67 and BrdU staining and by cell counts. Late passage primary human fibroblasts at PD=63 were seeded at 1×10^4 cells per well in 3 biological replicates in 24-well plates, allowed to grow for 10 days and then assayed for cell proliferation by ki67 staining. For assessment of cells in S phase, late passage primary human fibroblasts at PD=63 were seeded at 1×10^4 cells per coverslip as 3 biological replicates in 24-well plates, allowed to grow for 10 days and then were incubated with 5-Bromo-2′-deoxy-uridine (BrdU) for 24 hrs. BrdU incorporation was determined by the 5-Bromo-2′-deoxy-uridine labeling and detection kit I following instructions of the manufacturer (Roche Molecular Biochemicals). BrdU positive cells were visualized and counted by fluorescence microscopy. Cell counts were carried out manually in 3 biological replicates in treated and vehicle-only cultures following trypsinisation and suspension of cells and are presented as mean (+/−SEM). Following treatment, cells were fixed for 10 min with 4% PFA and permeabilized with 0.025% Triton and 10% serum in PBS for 1 hour. Ki-67 staining was carried out by rabbit monoclonal antibody (ab16667, Abcam, UK) at a 1:400 dilution and samples were incubated overnight at 4° C., followed by FITC-conjugated secondary goat anti-rabbit antibody (1:400) for 1 hour, and nuclei were counterstained with DAPI. Coverslips were mounted on slides in DAKO fluorescence mounting medium (S3023; Dako, Santa Clara, USA). The proliferation index was determined by counting the percentage of Ki67 positive cells from at least 400 nuclei from each biological replicate at 400× magnification under a Leica D4000 fluorescence microscope.

[2] = test system: late passage primary human fibroblasts; assay: CDKN2A (p16) and CDKN1A (p21) expression by qRTPCR; details: gene knockdown with morpholino oligonucleotides (10 μM)
[3] = test system: late passage primary human fibroblasts; assay: Cellular senescence by SA-β-Gal staining; details: gene knockdown with morpholino oligonucleotides (10 μM)
[4] = test system: late passage primary human fibroblast cells; assay: SASP protein levels in culture medium (MesoScale multiplex ELISA); details: 24 hrs, culture medium from senescent cells
Procedure: Late passage primary human fibroblast cells at PD=63 were seeded at 6×10^4 cells per well in a 6 well plate, cultured for 10 days and then treated with at 1 μM or 10 μM trametinib (MEK/ERK inhibitor) or SH-6 (AKT inhibitor) for 24 hours. Cell supernatants were then harvested and stored at −80° C. Levels of GMCSF, IFNγ, IL1β, IL2, IL6, IL8, IL10, IL-12p70, and TNFα SASP components were measured in cell supernatants from treated and vehicle-only control cells using the K15007B MesoScale Discovery multiplex ELISA immunoassay (MSD, Rockville, USA) in 4 biological replicates. Proteins were quantified relative to a standard curve using a Sector Imager SI-6000 according to the manufacturer's instructions.

[5] = test system: senescent primary human fibroblasts; assay: Splicing factor transcript expression by qRTPCR (TLDA); details: 24 hrs, control = 1.00
Procedure: Late passage primary human fibroblasts at PD=63 were seeded at 6×10^4 cells per well as 3 biological replicates in 6-well plates, allowed to grow for 10 days and then treated with the ERK inhibitor trametinib or the AKT inhibitor SH-6 at 1 μM or 10 μM for 24 hrs. Vehicle (DMSO) only controls were also included under the same growth conditions. The expression levels of 20 splicing factor transcripts previously associated with age, replicative senescence or lifespan in our previous work (Harries et al. 2011; Holly et al. 2013; Lee et al. 2016) were then assessed by qRTPCR. RNA was extracted using TRI Reagent® (Life Technologies, Foster City USA) according to the manufacturer's instructions. Total RNA (100 ng) was reverse transcribed in 20 μl reactions using the Superscript III VILO kit (Life Technologies). Transcript expression was then quantified in duplicate for each biological replicate using TaqMan Low Density Array (TLDA) on QuantStudio 12K Flex (Applied Biosystems, Foster City, USA). Cycling conditions were 1 cycle each of 50° C. for 2 min, 94.5° C. for 10 min and then 40 cycles of 97° C. for 30 s and 57.9° C. for 1 min. The reaction mixes included 50 μl TaqMan Fast Universal PCR Mastermix (Life Technologies), 30 μl dH2O and 20 μl cDNA template. 100 μl reaction mixture was dispensed into the TLDA card chamber and centrifuged twice for 1 min at 1000 rpm. Transcript expression was assessed by the Comparative Ct approach, relative to the IDH3B, GUSB and PP/A endogenous control genes and normalised to their expression in RNA from untreated late passage cells.

## FOXO1 morpholino: Antisense morpholino to 5′ untranslated region of FOXO1: TCCCCCAGCCGCAGGAGAGCCAAGA (all phosphorodiamidate morpholino (PMO))
[1]
  increase in proliferative index: 19%
[2]
  reduction in CDKN2A expression: 43%
[3]
  reduction in senescent cell load as measured by SA-β-Gal staining: ~40%

## ETV6 morpholino: Antisense morpholino to 5′ untranslated region of ETV6: CATGTCTCACAGCGAGAGAGATCAG (all phosphorodiamidate morpholino (PMO))
[1]
  increase in proliferative index: 36%
[2]
  reduction in CDKN2A expression: 24%
[3]
  reduction in senescent cell load as measured by SA-β-Gal staining: ~18%

## CC(=O)Nc1cccc(-n2c(=O)n(C3CC3)c(=O)c3c(Nc4ccc(I)cc4F)n(C)c(=O)c(C)c32)c1 [Trametinib, trametinib]
[1]; low dose (1 μM)
  increase in proliferative index (Ki67 staining): 31%
[4]; 1 uM
  GM-CSF SASP protein expression: 24.65*** percentage of the control value
  IL1b SASP protein expression: 156.70** percentage of the control value
  IL2 SASP protein expression: 50.72** percentage of the control value
  IL6 SASP protein expression: 77.75 percentage of the control value
  IL8 SASP protein expression: 44.42** percentage of the control value
  IL10 SASP protein expression: 34.37*** percentage of the control value
  IL12p70 SASP protein expression: 69.64 percentage of the control value
  INF-g SASP protein expression: 95.08 percentage of the control value
  TNFa SASP protein expression: 104.61 percentage of the control value
[4]; 10 uM
  GM-CSF SASP protein expression: 9.85*** percentage of the control value
  IL1b SASP protein expression: 50.35** percentage of the control value
  IL2 SASP protein expression: 14.39*** percentage of the control value
  IL6 SASP protein expression: 33.57*** percentage of the control value
  IL8 SASP protein expression: 5.33*** percentage of the control value
  IL10 SASP protein expression: 86.01 percentage of the control value
  IL12p70 SASP protein expression: 77.78 percentage of the control value
  INF-g SASP protein expression: 106.33 percentage of the control value
  TNFa SASP protein expression: 118.65 percentage of the control value
[5]; 1 uM
  AKAP17A splicing factor mRNA expression: 2.01***
  HNRNPA0 splicing factor mRNA expression: 2.38***
  HNRNPA1 splicing factor mRNA expression: 1.52*
  HNRNPA2B1 splicing factor mRNA expression: 1.53*
  HNRNPD splicing factor mRNA expression: 1.79*
  HNRNPH3 splicing factor mRNA expression: 1.89***
  HNRNPK splicing factor mRNA expression: 1.68***
  HNRNPM splicing factor mRNA expression: 1.46*
  HNRNPUL2 splicing factor mRNA expression: 1.63***
  IMP3 splicing factor mRNA expression: 1.77***
  LSM2 splicing factor mRNA expression: 0.85
  LSM14A splicing factor mRNA expression: 1.61**
  PNISR splicing factor mRNA expression: 1.63**
  SF3B1 splicing factor mRNA expression: 1.93***
  SRSF1 splicing factor mRNA expression: 1.69*
  SRSF2 splicing factor mRNA expression: 2.07**
  SRSF3 splicing factor mRNA expression: 1.64***
  SRSF6 splicing factor mRNA expression: 2.68***
  SRSF7 splicing factor mRNA expression: 2.38***
  TRA2B splicing factor mRNA expression: 1.66*
[5]; 10 uM
  AKAP17A splicing factor mRNA expression: 0.74**
  HNRNPA0 splicing factor mRNA expression: 1.11
  HNRNPA1 splicing factor mRNA expression: 0.49***
  HNRNPA2B1 splicing factor mRNA expression: 0.70***
  HNRNPD splicing factor mRNA expression: 0.75**
  HNRNPH3 splicing factor mRNA expression: 0.95
  HNRNPK splicing factor mRNA expression: 1.02
  HNRNPM splicing factor mRNA expression: 0.69***
  HNRNPUL2 splicing factor mRNA expression: 0.94
  IMP3 splicing factor mRNA expression: 0.97
  LSM2 splicing factor mRNA expression: 0.82
  LSM14A splicing factor mRNA expression: 1.18
  PNISR splicing factor mRNA expression: 1.11
  SF3B1 splicing factor mRNA expression: 0.96
  SRSF1 splicing factor mRNA expression: 0.68**
  SRSF2 splicing factor mRNA expression: 0.86*
  SRSF3 splicing factor mRNA expression: 0.72***
  SRSF6 splicing factor mRNA expression: 0.69***
  SRSF7 splicing factor mRNA expression: 0.57***
  TRA2B splicing factor mRNA expression: 0.73**
